According to the NIST ThermoML archive (doi:10.1021/je9004036):
“And” between values parts separate entries of the source, which are not always exact repeats. Identical values can stand only once. Numbers after ± are expanded uncertainties.

Assays:
[1] = Molar enthalpy of transition or fusion; details: Crystal 1; DSC
[2] = for vapor or sublimation pressure: Liquid, Calculated from knudsen effusion weight loss; for Normal melting temperature: Crystal, DTA

COc1cccc(C(=O)O)c1N [2-amino-3-methoxybenzoic acid]
Molar enthalpy of transition or fusion [1]: 5.79 ± 0.131 kcal/mol
vapor or sublimation pressure ([2]; 349.12 K): 0.000123 ± 2e-05 kPa and 0.000121 ± 2e-05 kPa
vapor or sublimation pressure ([2]; 351.18 K): 0.000152 ± 2.1e-05 kPa and 0.00015 ± 2.1e-05 kPa and 0.000149 ± 2.1e-05 kPa
vapor or sublimation pressure ([2]; 353.19 K): 0.000194 ± 2.1e-05 kPa and 0.000186 ± 2.1e-05 kPa and 0.000183 ± 2.1e-05 kPa
vapor or sublimation pressure ([2]; 355.13 K): 0.000235 ± 2.2e-05 kPa and 0.000232 ± 2.2e-05 kPa and 0.000234 ± 2.2e-05 kPa
vapor or sublimation pressure ([2]; 357.18 K): 0.000297 ± 2.3e-05 kPa and 0.000285 ± 2.2e-05 kPa and 0.000283 ± 2.2e-05 kPa
vapor or sublimation pressure ([2]; 359.12 K): 0.000362 ± 2.4e-05 kPa and 0.000356 ± 2.4e-05 kPa and 0.000355 ± 2.4e-05 kPa
vapor or sublimation pressure ([2]; 360.13 K): 0.000407 ± 2.5e-05 kPa and 0.000404 ± 2.5e-05 kPa and 0.0004 ± 2.5e-05 kPa
vapor or sublimation pressure ([2]; 361.16 K): 0.000446 ± 2.6e-05 kPa and 0.000437 ± 2.5e-05 kPa and 0.000431 ± 2.5e-05 kPa
vapor or sublimation pressure ([2]; 363.18 K): 0.000552 ± 2.8e-05 kPa and 0.000537 ± 2.8e-05 kPa and 0.000527 ± 2.7e-05 kPa
vapor or sublimation pressure ([2]; 367.18 K): 0.000847 ± 3.6e-05 kPa and 0.000823 ± 3.5e-05 kPa and 0.000808 ± 3.5e-05 kPa
vapor or sublimation pressure ([2]; 369.18 K): 0.001031 ± 8e-05 kPa and 0.001004 ± 7.8e-05 kPa and 0.000983 ± 4e-05 kPa
Normal melting temperature [2]: 169.86 ± 0.63 °C

COc1ccc(N)c(C(=O)O)c1 [2-amino-5-methoxybenzoic acid]
Molar enthalpy of transition or fusion [1]: 5.47 ± 0.124 kcal/mol
vapor or sublimation pressure ([2]; 353.13 K): 0.0001 ± 2e-05 kPa and 0.000101 ± 2e-05 kPa
vapor or sublimation pressure ([2]; 355.15 K): 0.000131 ± 2.1e-05 kPa and 0.000128 ± 2.1e-05 kPa and 0.00013 ± 2.1e-05 kPa
vapor or sublimation pressure ([2]; 357.2 K): 0.000159 ± 2.1e-05 kPa and 0.000158 ± 2.1e-05 kPa
vapor or sublimation pressure ([2]; 359.18 K): 0.000202 ± 2.1e-05 kPa and 0.000196 ± 2.1e-05 kPa and 0.000195 ± 2.1e-05 kPa
vapor or sublimation pressure ([2]; 361.15 K): 0.000251 ± 2.2e-05 kPa and 0.000249 ± 2.2e-05 kPa and 0.000252 ± 2.2e-05 kPa
vapor or sublimation pressure ([2]; 363.2 K): 0.000316 ± 2.3e-05 kPa and 0.000304 ± 2.3e-05 kPa and 0.000306 ± 2.3e-05 kPa
vapor or sublimation pressure ([2]; 365.18 K): 0.000384 ± 2.4e-05 kPa and 0.000376 ± 2.4e-05 kPa
vapor or sublimation pressure ([2]; 367.16 K): 0.000479 ± 2.6e-05 kPa and 0.000458 ± 2.6e-05 kPa and 0.000447 ± 2.6e-05 kPa
vapor or sublimation pressure ([2]; 369.18 K): 0.000577 ± 2.9e-05 kPa and 0.000562 ± 2.8e-05 kPa and 0.000553 ± 2.8e-05 kPa
vapor or sublimation pressure ([2]; 371.14 K): 0.000723 ± 3.3e-05 kPa and 0.000704 ± 3.2e-05 kPa and 0.000716 ± 3.2e-05 kPa
vapor or sublimation pressure ([2]; 373.17 K): 0.000898 ± 3.8e-05 kPa and 0.000864 ± 3.7e-05 kPa and 0.000856 ± 3.6e-05 kPa
vapor or sublimation pressure ([2]; 375.17 K): 0.001076 ± 8.5e-05 kPa and 0.001049 ± 8.2e-05 kPa and 0.001039 ± 8.1e-05 kPa
Normal melting temperature [2]: 151.81 ± 0.84 °C

COc1ccc(C(=O)O)cc1N [3-amino-4-methoxybenzoic acid]
Molar enthalpy of transition or fusion [1]: 6.06 ± 0.136 kcal/mol
vapor or sublimation pressure ([2]; 379.67 K): 0.00014 ± 2.1e-05 kPa and 0.000138 ± 2.1e-05 kPa and 0.000135 ± 2.1e-05 kPa
vapor or sublimation pressure ([2]; 381.72 K): 0.000174 ± 2.1e-05 kPa and 0.000169 ± 2.1e-05 kPa and 0.000164 ± 2.1e-05 kPa
vapor or sublimation pressure ([2]; 383.68 K): 0.000215 ± 2.1e-05 kPa and 0.000205 ± 2.1e-05 kPa and 0.000199 ± 2.1e-05 kPa
vapor or sublimation pressure ([2]; 385.16 K): 0.000247 ± 2.2e-05 kPa and 0.000252 ± 2.2e-05 kPa
vapor or sublimation pressure ([2]; 387.19 K): 0.000306 ± 2.3e-05 kPa and 0.000298 ± 2.3e-05 kPa and 0.00029 ± 2.2e-05 kPa
vapor or sublimation pressure ([2]; 389.18 K): 0.000382 ± 2.4e-05 kPa and 0.000363 ± 2.4e-05 kPa and 0.000353 ± 2.4e-05 kPa
vapor or sublimation pressure ([2]; 391.17 K): 0.000455 ± 2.6e-05 kPa
vapor or sublimation pressure ([2]; 393.21 K): 0.000568 ± 2.8e-05 kPa and 0.000557 ± 2.8e-05 kPa and 0.000536 ± 2.8e-05 kPa
vapor or sublimation pressure ([2]; 395.18 K): 0.000698 ± 3.2e-05 kPa and 0.000676 ± 3.1e-05 kPa
vapor or sublimation pressure ([2]; 397.2 K): 0.000832 ± 3.6e-05 kPa and 0.000811 ± 3.5e-05 kPa and 0.000786 ± 3.4e-05 kPa
vapor or sublimation pressure ([2]; 399.18 K): 0.001028 ± 8e-05 kPa and 0.000967 ± 4e-05 kPa and 0.000941 ± 3.9e-05 kPa
Normal melting temperature [2]: 204.72 ± 0.6 °C

COc1cc(N)cc(C(=O)O)c1 [3-amino-5-methoxybenzoic acid]
Molar enthalpy of transition or fusion [1]: 5.35 ± 0.122 kcal/mol
vapor or sublimation pressure ([2]; 380.16 K): 0.000125 ± 2e-05 kPa and 0.000123 ± 2e-05 kPa
vapor or sublimation pressure ([2]; 381.19 K): 0.000138 ± 2.1e-05 kPa and 0.000135 ± 2.1e-05 kPa and 0.000131 ± 2.1e-05 kPa
vapor or sublimation pressure ([2]; 383.18 K): 0.000174 ± 2.1e-05 kPa and 0.000164 ± 2.1e-05 kPa and 0.000156 ± 2.1e-05 kPa
vapor or sublimation pressure ([2]; 385.16 K): 0.000201 ± 2.1e-05 kPa and 0.000217 ± 2.1e-05 kPa and 0.000208 ± 2.1e-05 kPa
vapor or sublimation pressure ([2]; 387.2 K): 0.000269 ± 2.2e-05 kPa and 0.000253 ± 2.2e-05 kPa and 0.000242 ± 2.2e-05 kPa
vapor or sublimation pressure ([2]; 389.16 K): 0.000325 ± 2.3e-05 kPa and 0.000316 ± 2.3e-05 kPa and 0.000301 ± 2.3e-05 kPa
vapor or sublimation pressure ([2]; 393.19 K): 0.000511 ± 2.7e-05 kPa and 0.00049 ± 2.6e-05 kPa and 0.000473 ± 2.6e-05 kPa
vapor or sublimation pressure ([2]; 395.18 K): 0.000631 ± 3e-05 kPa and 0.000591 ± 2.9e-05 kPa and 0.00057 ± 2.8e-05 kPa
vapor or sublimation pressure ([2]; 397.18 K): 0.000773 ± 3.4e-05 kPa
vapor or sublimation pressure ([2]; 399.19 K): 0.000917 ± 3.8e-05 kPa and 0.000887 ± 3.7e-05 kPa and 0.000862 ± 3.7e-05 kPa
vapor or sublimation pressure ([2]; 400.18 K): 0.001003 ± 7.8e-05 kPa and 0.00094 ± 3.9e-05 kPa and 0.000926 ± 3.8e-05 kPa
Normal melting temperature [2]: 183.79 ± 0.87 °C

COc1cc(C(=O)O)ccc1N [4-amino-3-methoxybenzoic acid]
Molar enthalpy of transition or fusion [1]: 6.04 ± 0.146 kcal/mol
vapor or sublimation pressure ([2]; 373.14 K): 0.000103 ± 2e-05 kPa and 0.000102 ± 2e-05 kPa
vapor or sublimation pressure ([2]; 375.15 K): 0.00013 ± 2.1e-05 kPa and 0.000127 ± 2.1e-05 kPa and 0.000126 ± 2.1e-05 kPa
vapor or sublimation pressure ([2]; 377.18 K): 0.000163 ± 2.1e-05 kPa and 0.000156 ± 2.1e-05 kPa and 0.000153 ± 2.1e-05 kPa
vapor or sublimation pressure ([2]; 379.17 K): 0.000192 ± 2.1e-05 kPa and 0.000186 ± 2.1e-05 kPa and 0.000196 ± 2.1e-05 kPa
vapor or sublimation pressure ([2]; 381.17 K): 0.00025 ± 2.2e-05 kPa and 0.00024 ± 2.2e-05 kPa and 0.000232 ± 2.2e-05 kPa
vapor or sublimation pressure ([2]; 383.18 K): 0.000301 ± 2.3e-05 kPa
vapor or sublimation pressure ([2]; 385.16 K): 0.000384 ± 2.4e-05 kPa and 0.000376 ± 2.4e-05 kPa and 0.000374 ± 2.4e-05 kPa
vapor or sublimation pressure ([2]; 387.17 K): 0.000476 ± 2.6e-05 kPa and 0.000455 ± 2.6e-05 kPa and 0.000444 ± 2.5e-05 kPa
vapor or sublimation pressure ([2]; 389.16 K): 0.000587 ± 2.9e-05 kPa and 0.000573 ± 2.9e-05 kPa and 0.00057 ± 2.8e-05 kPa
vapor or sublimation pressure ([2]; 391.17 K): 0.000724 ± 3.3e-05 kPa and 0.000696 ± 3.2e-05 kPa and 0.000678 ± 3.1e-05 kPa
vapor or sublimation pressure ([2]; 393.17 K): 0.000864 ± 3.7e-05 kPa and 0.000841 ± 3.6e-05 kPa and 0.000826 ± 3.5e-05 kPa
vapor or sublimation pressure ([2]; 395.17 K): 0.001037 ± 8.1e-05 kPa and 0.001005 ± 7.8e-05 kPa and 0.000971 ± 4e-05 kPa
Normal melting temperature [2]: 189.20 ± 1.6 °C
